Source: patent US4591601A, “Anticonvulsant dioxolane methane sulfamates” (McNeilab, Inc., priority 1985, dated 1986)

What follows are molecules tested on tonic extensor seizure (assay: maximal electroshock test (MES), block of tonic extensor seizure). Conditions: Mus musculus, ip, 0.5 h; mice, i.p., tested 30 minutes after injection; 1b in aqueous solution, Examples 2 and 3 as suspensions with Tween 80 and water; probit analysis.
Assay type: in vivo, mice (male albino, Swiss Webster)
Protocol: The compounds of formula (I) are useful as anticonvulsant agents. The anticonvulsant activity of the subject compounds was determined using a standard "maximal electroshock test" (MES). In this test, activity is indicated by a block of the tonic extensor seizure caused by application of an electric shock to mice via corneal electrodes, as described by Swinyard et al in J. Pharmacol. Exptl. Therap. 106, 319 (1952). A more recent description of current anticonvulsant drug screening is given in Swinyard et al in Epilepsia 19, 409 (1978). Non-fasted male albino mice of the Swiss Webster strain (Royal-Hart Laboratories, New Hampton, N.Y.) weighing 18-24 grams were used in this test. Six to eight groups of ten mice each were used per ED50 determination. The product of Example 1b was administered in aqueous solution while the compounds produced in Examples 2 and 3 were administered as suspensions prepared with Tween 80 and water. Testing was conducted at 30 minutes following intraperitoneal injection of the test compound. A group of ten mice injected with saline 10 ml/kg i.p. and tested 30 minutes later served as controls. ED50 's were calculated using a computerized probit analysis procedure.

Going from `CC1(C)OCC(COS(N)(=O)=O)O1` (stereo not drawn) [Example 1b, (2,2-Dimethyl-1,3-dioxolan-4-yl)methyl sulfamic acid ester] to `NS(=O)(=O)OCC1COC2(CCCCC2)O1` (stereo not drawn) [Example 3, (1,4-Dioxaspiro[4.5]dec-2-yl)methyl Sulfamic acid ester], the ED50 rises from 105 mg/kg to 169 mg/kg (1.6-fold).

For `CCCCCCCCCC1(C)OCC(COS(N)(=O)=O)O1` (stereo not drawn) [Example 2, (2-Methyl-2-nonyl-1,3-dioxolan-4-yl)methyl sulfamic acid ester Hydrate compound with 2-undecanone (10:1:2)], the ED50 was 319 mg/kg.
